In patent US10028966B2 (Avalyn Pharma Inc., priority 2014, dated 2018):
In brackets after ≈: the same amount, converted by molar mass. Where two headings read alike, the source gives them in different places.

Tests used:
[1] = system: inflammasome activation in 264.7 macrophages; assay: Inflammasome second signal activation (ATP, secreted IL-1β); format: cell-based; conditions: for IL-1β: LPS +, ATP +; for IC50: Macrophage
[2] = Intravenous push of pirfenidone, plasma and lung levels; format: in vivo; conditions: mouse
[3] = cited from earlier work; for AUC (0-18 hrs) / Cmax: human
[4] = target: T1, 2D6 (Homo sapiens, UniProt P10635); conditions: hepatic microsomes; cited from earlier work
T1 construct: In vitro metabolism studies with hepatic microsomes; from tissue; host or cells: hepatic microsomes
T1 sequence (P10635 whole entry): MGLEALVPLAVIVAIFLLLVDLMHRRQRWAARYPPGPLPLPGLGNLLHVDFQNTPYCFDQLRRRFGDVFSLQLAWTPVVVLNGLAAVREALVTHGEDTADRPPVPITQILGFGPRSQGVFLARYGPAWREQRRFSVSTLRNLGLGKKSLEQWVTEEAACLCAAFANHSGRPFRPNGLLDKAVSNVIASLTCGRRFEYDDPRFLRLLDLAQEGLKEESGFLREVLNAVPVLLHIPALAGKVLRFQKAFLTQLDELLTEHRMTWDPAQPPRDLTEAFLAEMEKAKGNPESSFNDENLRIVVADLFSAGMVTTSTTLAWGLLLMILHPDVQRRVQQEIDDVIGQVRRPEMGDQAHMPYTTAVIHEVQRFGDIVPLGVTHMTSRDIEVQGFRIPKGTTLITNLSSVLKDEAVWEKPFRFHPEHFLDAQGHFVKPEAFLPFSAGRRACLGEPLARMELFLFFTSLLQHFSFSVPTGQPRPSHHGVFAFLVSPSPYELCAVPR

[5] = oral 801 mg fasted-state, plasma

SMILES: Cc1ccc(=O)n(-c2ccccc2)c1 [pirfenidone, 5-methyl-1-phenyl-2-(1H)-pyridone]
- IL-1β ([1]; Longer-term exposure, 40 min > ATP, pirfenidone 5 mcg/mL): 1.4 pg/mL
- IL-1β ([1]; Longer-term exposure, 40 min > ATP, pirfenidone 25 mcg/mL): 1.1 pg/mL
- IL-1β ([1]; Longer-term exposure, 40 min > ATP, pirfenidone 125 mcg/mL): 0.9 pg/mL
- IL-1β ([1]; Longer-term exposure, 40 min > ATP, pirfenidone 625 mcg/mL): 0.4 pg/mL
- IC50 ([1]; 40 min, second (40 minute) sampling point alone, short-term exposure): ~25 µg/mL (≈ 135 µM)
- IC50 ([1]; sum of short-term sampling points and longer-term sampling point): ~625 µg/mL (≈ 3370 µM)
- IL-1β ([1]; Short-term exposure, 10 + 40 min > ATP (sum of sampling points), pirfenidone 5 mcg/mL): 1.1 pg/mL
- IL-1β ([1]; Short-term exposure, 10 + 40 min > ATP (sum of sampling points), pirfenidone 25 mcg/mL): 1.0 pg/mL
- IL-1β ([1]; Short-term exposure, 10 + 40 min > ATP (sum of sampling points), pirfenidone 125 mcg/mL): 1.0 pg/mL
- IL-1β ([1]; Short-term exposure, 10 + 40 min > ATP (sum of sampling points), pirfenidone 625 mcg/mL): 0.6 pg/mL
- IL-1β ([1]; Short-term exposure, 10 min > ATP, pirfenidone 5 mcg/mL): 81.5 pg/mL
- IL-1β ([1]; Short-term exposure, 10 min > ATP, pirfenidone 25 mcg/mL): 100.0 pg/mL
- IL-1β ([1]; Short-term exposure, 10 min > ATP, pirfenidone 125 mcg/mL): 118.7 pg/mL
- IL-1β ([1]; Short-term exposure, 10 min > ATP, pirfenidone 625 mcg/mL): 66.3 pg/mL
- IL-1β ([1]; Short-term exposure, 40 min > ATP, pirfenidone 5 mcg/mL): 95.8 pg/mL
- IL-1β ([1]; Short-term exposure, 40 min > ATP, pirfenidone 25 mcg/mL): 50.4 pg/mL
- IL-1β ([1]; Short-term exposure, 40 min > ATP, pirfenidone 125 mcg/mL): 36.3 pg/mL
- IL-1β ([1]; Short-term exposure, 40 min > ATP, pirfenidone 625 mcg/mL): 27.3 pg/mL
- Lung Cmax ([2]; 40 mg/kg intravenous dose): 30 mcg/gram wet tissue
- pirfenidone in the lung tissue after subtracting blood content ([2]; 40 mg/kg intravenous dose, blood assumed 40% of wet lung weight): about 8 mcg/g
- wet lung half-life, longer than the plasma half-life ([2]; intravenous push): about 45%
- Cmax ([2]; plasma, 40 mg/kg intravenous dose): ~55 µg/mL
- T1/2 beta ([3]; aerosol 47 mg RDD, lung tissue, from plasma T1/2, Rubino et al., 2009 fasted-state): 2.5 h
- T1/2 beta ([3]; aerosol 47 mg RDD, plasma, Rubino et al., 2009 fasted-state): 2.5 h
- AUC (0-18 hrs) [3, 5]: 67700 ng·h/mL
- Cmax [3, 5]: 14.2 microgram/mL
- AUC (0-18 hrs) ([3]; oral 801 mg fed-state, plasma): 58900 ng·h/mL
- Cmax ([3]; oral 801 mg fed-state, plasma): 7.9 microgram/mL
- T1/2 beta ([3]; oral 801 mg fasted-state, lung tissue, from plasma T1/2, Rubino et al., 2009): 2.5 h
- T1/2 beta ([3]; oral 801 mg fasted-state, plasma, Rubino et al., 2009): 2.5 h
- T1/2 beta ([3]; oral 801 mg fed-state, lung tissue, from plasma T1/2, Rubino et al., 2009): 2.4 h
- T1/2 beta ([3]; oral 801 mg fed-state, plasma, Rubino et al., 2009): 2.4 h
- contribution to pirfenidone metabolism [4]: less than 13%
